Data published in BindingDB's records for doi:10.1016/s0960-894x(00)00654-5 (Roche Discover Welwyn, 2001).
*1 amine or outer side, *2 acyl side, *3 side chain or, on linkers, in order; H or OH if unused. Where a SMILES comes first, the peptide text is derived from it. [ ]: non-standard residue; d: D form. The star is where a group is joined. Phe(2-Me) = Cc1ccccc1C[C@H](N)C(=O)O; NleCONH2 = CCCC[C@H](N*)C(=O)C(N)=O; Suc = O=C(CCC(=O)[*:2])[*:1]; Tle = CC(C)(C)[C@H](N)C(=O)O

Assay: Compound was tested for inhibition of Serine protease chymotrypsin

CCCC[C@H](NC(=O)[C@H](CC(C)C)NC(=O)[C@@H](NC(=O)[C@H](Cc1ccccc1C)NC(=O)[C@H](CCC(=O)O)NC(=O)[C@H](CC(=O)O)NC(=O)CCC(=O)O)C(C)(C)C)C(=O)C(N)=O [(S)-4-((S)-1-{(S)-1-[(S)-1-((R)-1-Aminooxalyl-pentylcarbamoyl)-3-methyl-butylcarbamoyl]-2,2-dimethyl-propylcarbamoyl}-2-o-tolyl-ethylcarbamoyl)-4-[(S)-3-carboxy-2-(3-carboxy-propionylamino)-propionylamino]-butyric acid] (Suc-DE[Phe(2-Me)][Tle]L-NleCONH2)
IC50: 300 nM
